Data: the OPERA property sets (Mansouri et al. 2018)

SMILES	logP
CCc1cnc(-c2ccc(OC)cc2)c(-c2ccc(OC)cc2)n1	4.22
Cc1cnc(-c2ccccc2)c(-c2ccccc2)n1	3.52
COc1ccc(-c2ncc(C#N)nc2-c2ccc(OC)cc2)cc1	3.7
CCc1ncc(-c2ccccc2)nc1-c1ccccc1	4.66
CC(C)c1cnc(-c2ccccc2)c(-c2ccccc2)n1	4.71
COc1ccc(-c2nccnc2-c2ccc(OC)cc2)cc1	3.42
COc1cccc(Cc2cnc(-c3ccccc3)c(-c3ccccc3)n2)c1	5.2
Clc1cnc(-c2ccccc2)c(-c2ccccc2)n1	4.05
CCc1nc(CC)c(-c2ccccc2)nc1-c1ccccc1	4.83
c1ccc(-c2cnccn2)cc1	2.07
Cc1nc(Cl)c(C)nc1Cl	2.4
Cc1ncc(-c2ccccc2)nc1-c1ccccc1	4.29
[O-][n+]1cc(Cl)nc(-c2ccc(Cl)cc2)c1-c1ccc(Cl)cc1	3.66
Cc1nc(Cl)c(C)[n+]([O-])c1Cl	1.08
COc1ccc(-c2cnccn2)cc1	2.24

Continued, values first:

logP	SMILES
3.19	c1ccc(-c2nccnc2-c2ccccc2)cc1
3.75	Cc1cnc(-c2ccc(F)cc2)c(-c2ccc(F)cc2)n1
4.3	COc1ccc(-c2ncc(Cl)nc2-c2ccc(OC)cc2)cc1
0.19	Cc1ncc(C)[n+]([O-])c1Cl
4.28	Cc1nc(-c2ccccc2)cnc1-c1ccccc1
4.47	COc1ccc(-c2ncc(OC)nc2-c2ccc(OC)cc2)cc1
2.52	Cc1cnc(-c2ccc(C#N)cc2)c(-c2ccc(C#N)cc2)n1
3.66	COc1ccc(-c2ncc(C)nc2-c2ccc(OC)cc2)cc1
4.73	CCOc1cnc(-c2ccccc2)c(-c2ccccc2)n1
5	CCOc1cnc(-c2ccc(OC)cc2)c(-c2ccc(OC)cc2)n1
0.44	Cc1c[n+]([O-])c(C)c(Cl)n1
5.18	COc1ccccc1Cc1cnc(-c2ccccc2)c(-c2ccccc2)n1
3.41	COC(=O)c1cnc(-c2ccc(OC)cc2)c(-c2ccc(OC)cc2)n1
4.21	COc1cnc(-c2ccccc2)c(-c2ccccc2)n1
4.1	COc1ccc(-c2nc(C)c(C)nc2-c2ccc(OC)cc2)cc1
3.41	[O-][n+]1ccnc(-c2ccc(Br)cc2)c1-c1ccc(Br)cc1
4.1	Cc1ccc(-c2nccnc2-c2ccc(C)cc2)cc1
